Test results published in ChEMBL document CHEMBL5260832, “Hepatoprotective natural triterpenoids” (Eur J Med Chem, 2018).

Experiments:
Format in all cases: functional
L02 = assay: Hepatoprotective activity against D-GaIN-induced toxicity in human HL7702 cells assessed as inhibition of cell survival rate at 10 uM relative to control
Hepatocyte = assay: Hepatoprotective activity against D-GaIN/LPS induced liver injury in rat hepatocytes assessed as cell death at 10 to 500 uM relative to control; details: dose 10-500 µM
Mus musculus = assay: Hepatoprotective activity against D-GaIN/CCl4 induced liver injury mouse model assessed as reduction in GPT level at 30 microg/kg, iv relative to control; design: scale not given: the % may be the effect or the level left; details: dose 30 µg/kg

COC(=O)c1cc(OC)c2c(c1-c1c(CO)cc(OC)c3c1OCO3)OCO2 [BICYCLOL]
Activity (L02): 26.2%

CCOC(=O)[C@H]1O[C@@H](O[C@H]2CC[C@]3(C)[C@H]4CC=C5[C@@H]6CC(C)(C)CC[C@]6(C(=O)O[C@@H]6O[C@H](CO)[C@@H](O)[C@H](O)[C@H]6O[C@@H]6O[C@H](COC(C)=O)[C@@H](O)[C@H](O)[C@H]6O)CC[C@@]5(C)[C@]4(C)CC[C@H]3C2(C)C)[C@H](O[C@@H]2O[C@H](CO)[C@@H](O)[C@H](O)[C@H]2O[C@@H]2O[C@@H](C)[C@H](O)[C@@H](O)[C@H]2O)[C@@H](O)[C@@H]1O
Activity (L02): 75.7%

C[C@@H]1O[C@@H](O[C@H]2[C@H](O[C@H]3[C@H](O[C@H]4CC[C@@]5(C)[C@@H](CC[C@]6(C)[C@@H]5CC=C5[C@@H]7CC(C)(C)[C@H](O[C@@H]8O[C@H](CO)[C@@H](O)[C@H](O)[C@H]8O)C[C@]7(C)CC[C@]56C)[C@@]4(C)CO)O[C@H](C(=O)O)[C@@H](O)[C@@H]3O)O[C@H](CO)[C@H](O)[C@@H]2O)[C@H](O)[C@H](O)[C@H]1O
Activity (Hepatocyte): 0%

C[C@@H]1O[C@@H](O[C@H]2[C@H](O[C@H]3[C@H](O[C@H]4CC[C@@]5(C)[C@@H](CC[C@]6(C)[C@@H]5CC=C5[C@@H]7CC(C)(C)C[C@@H](O)[C@]7(C)CC[C@]56C)[C@@]4(C)CO)O[C@H](C(=O)O)[C@@H](O)[C@@H]3O)O[C@H](CO)[C@H](O)[C@@H]2O)[C@H](O)[C@H](O)[C@H]1O [SOYASAPONIN I]
Activity (Hepatocyte): 0%

C[C@@H]1O[C@@H](O[C@H]2[C@H](O[C@H]3[C@H](O[C@H]4CC[C@]5(C)[C@H]6CC=C7[C@@H]8CC(C)(C)CC[C@]8(C(=O)O)CC[C@@]7(C)[C@]6(C)CC[C@H]5C4(C)C)O[C@H](C(=O)O)[C@@H](O)[C@@H]3O)O[C@H](CO)[C@@H](O)[C@@H]2O)[C@H](O)[C@H](O)[C@H]1O
Activity (L02): 56.8%

CC(C)=CCC[C@](C)(O)[C@H]1CC[C@]2(C)[C@@H]1[C@H](O)C[C@@H]1[C@@]3(C)CC[C@H](O[C@@H]4O[C@H](CO)[C@@H](O)[C@H](O)[C@H]4O)C(C)(C)[C@@H]3CC[C@]12C [GINSENOSIDE RH2]
Activity (Mus musculus): 31%

CC(C)=CCC[C@@](C)(O)[C@H]1CC[C@]2(C)[C@@H]1[C@H](O)C[C@@H]1[C@@]3(C)CC[C@H](O)C(C)(C)[C@@H]3[C@@H](O[C@@H]3O[C@H](CO)[C@@H](O)[C@H](O)[C@H]3O[C@@H]3O[C@H](CO)[C@@H](O)[C@H](O)[C@H]3O)C[C@]12C
Activity (Mus musculus): 73%

CCCCOC(=O)[C@H]1O[C@@H](O[C@H]2CC[C@]3(C)[C@H]4CC=C5[C@@H]6[C@@H](C)[C@H](C)CC[C@]6(C(=O)O[C@@H]6O[C@H](CO)[C@@H](O[C@@H]7O[C@@H](C)[C@H](O)[C@@H](O)[C@H]7O)[C@H](O)[C@H]6O)CC[C@@]5(C)[C@]4(C)CC[C@H]3C2(C)C)[C@H](O[C@@H]2O[C@H](CO)[C@@H](O)[C@H](O)[C@H]2O[C@@H]2O[C@@H](C)[C@H](O)[C@@H](O)[C@H]2O)[C@@H](O)[C@@H]1O
Activity (L02): 32.2%

C[C@@H]1O[C@@H](O[C@H]2[C@H](O[C@H]3[C@H](O[C@H]4CC[C@@]5(C)[C@@H](CC[C@]6(C)[C@@H]5CC=C5[C@@H]7CC(C)(C)CC(=O)[C@]7(C)CC[C@]56C)[C@@]4(C)CO)O[C@H](C(=O)O)[C@@H](O)[C@@H]3O)O[C@H](CO)[C@H](O)[C@@H]2O)[C@H](O)[C@H](O)[C@H]1O
Activity (Hepatocyte): 0%

C[C@@H]1O[C@@H](O[C@H]2[C@H](O[C@H]3[C@H](O[C@H]4CC[C@@]5(C)[C@@H](CC[C@]6(C)[C@@H]5CC=C5[C@@H]7C[C@@](C)(CO[C@@H]8O[C@H](CO)[C@@H](O)[C@H](O)[C@H]8O)C[C@@H](O)[C@]7(C)CC[C@]56C)[C@@]4(C)CO)O[C@H](C(=O)O)[C@@H](O)[C@@H]3O)O[C@H](CO)[C@H](O)[C@@H]2O)[C@H](O)[C@H](O)[C@H]1O
Activity (Hepatocyte): 0%

C[C@@H]1O[C@@H](O[C@H]2[C@H](O[C@H]3[C@H](O[C@H]4CC[C@@]5(C)[C@@H](CC[C@]6(C)[C@@H]5CC=C5[C@@H]7CC(C)(C)[C@@H](O[C@@H]8OC[C@@H](O)[C@H](O)[C@H]8O)[C@@H](O)[C@]7(C)CC[C@]56C)[C@@]4(C)CO)O[C@H](C(=O)O)[C@@H](O)[C@@H]3O)O[C@H](CO)[C@H](O)[C@@H]2O)[C@H](O)[C@H](O)[C@H]1O
Activity (Hepatocyte): 0%

C[C@@H]1O[C@@H](O[C@H]2[C@H](O[C@H]3[C@H](O[C@H]4CC[C@@]5(C)[C@@H](CC[C@]6(C)[C@@H]5CC=C5[C@@H]7CC(C)(C)C[C@@H](O[C@@H]8O[C@@H](C)[C@H](O)[C@@H](O)[C@H]8O)[C@]7(C)CC[C@]56C)[C@@]4(C)CO)O[C@H](C(=O)O)[C@@H](O)[C@@H]3O)O[C@H](CO)[C@H](O)[C@@H]2O)[C@H](O)[C@H](O)[C@H]1O
Activity (Hepatocyte): 0%

C[C@@H]1O[C@@H](O[C@H]2[C@H](O[C@H]3[C@H](O[C@H]4CC[C@@]5(C)[C@@H](CC[C@]6(C)[C@@H]5CC=C5[C@@H]7CC(C)(C)[C@H](O[C@@H]8O[C@H](CO)[C@@H](O)[C@H](O)[C@H]8O)C[C@]7(C)CC[C@]56C)[C@@]4(C)CO)O[C@H](C(=O)O)[C@@H](O)[C@@H]3O)OC[C@@H](O)[C@@H]2O)[C@H](O)[C@H](O)[C@H]1O
Activity (Hepatocyte): 0%

CCOC(=O)[C@H]1O[C@@H](O[C@H]2CC[C@]3(C)[C@H]4CC=C5[C@@H]6CC(C)(C)CC[C@]6(C(=O)O)CC[C@@]5(C)[C@]4(C)CC[C@H]3C2(C)C)[C@H](O[C@@H]2O[C@H](CO)[C@@H](O)[C@H](O)[C@H]2O[C@@H]2OC[C@@H](O)[C@H](O)[C@H]2O)[C@@H](O)[C@@H]1O
Activity (L02): 44.8%

CCCCOC(=O)[C@H]1O[C@@H](O[C@H]2CC[C@]3(C)[C@H]4CC=C5[C@@H]6CC(C)(C)CC[C@]6(C(=O)O[C@@H]6O[C@H](CO)[C@@H](O)[C@H](O)[C@H]6O[C@@H]6OC[C@@H](O)[C@H](O)[C@H]6O)CC[C@@]5(C)[C@]4(C)CC[C@H]3C2(C)C)[C@H](O[C@@H]2O[C@H](CO)[C@@H](O)[C@H](O)[C@H]2O[C@@H]2O[C@@H](C)[C@H](O)[C@@H](O)[C@H]2O)[C@@H](O)[C@@H]1O
Activity (L02): 54.7%

C=C(C)[C@@H]1CC[C@]2(C(=O)O)CC[C@]3(C)[C@H](CC[C@@H]4[C@@]5(C)CC[C@H](O[C@@H]6O[C@H](C(=O)OCC)[C@@H](O)[C@H](O)[C@H]6O[C@@H]6OC[C@@H](O)[C@H](O)[C@H]6O)C(C)(C)[C@@H]5CC[C@]43C)[C@@H]12
Activity (L02): 32.8%

CC1(C)C[C@H]2C3=CC[C@@H]4[C@@]5(C)C=CC(=O)C(C)(C)[C@@H]5CC[C@@]4(C)[C@]3(C)CC[C@@]2(C(=O)O)C[C@@H]1O
Activity (L02): 76.8%

C[C@@H]1O[C@@H](O[C@H]2[C@H](O[C@H]3[C@H](O[C@H]4CC[C@@]5(C)[C@@H](CC[C@]6(C)[C@@H]5CC=C5[C@@H]7CC(C)(C)C[C@@H](O)[C@]7(C)CC[C@]56C)[C@@]4(C)CO)O[C@H](C(=O)O)[C@@H](O)[C@@H]3O)OC[C@@H](O)[C@@H]2O)[C@H](O)[C@H](O)[C@H]1O
Activity (Hepatocyte): 0%

C=C(C)[C@@H]1CC[C@]2(C(=O)O[C@@H]3O[C@H](C(=O)OCC)[C@@H](O)[C@H](O)[C@H]3O[C@@H]3OC[C@@H](O)[C@H](O)[C@H]3O)CC[C@]3(C)[C@H](CC[C@@H]4[C@@]5(C)CC[C@H](O)C(C)(C)[C@@H]5CC[C@]43C)[C@@H]12
Activity (L02): 48.3%

C[C@@H]1O[C@@H](O[C@H]2[C@H](O[C@H]3[C@H](O[C@H]4CC[C@@]5(C)[C@@H](CC[C@]6(C)[C@@H]5CC=C5[C@@H]7CC(C)(C)C[C@@H](O[C@@H]8O[C@H](CO)[C@@H](O)[C@H](O)[C@H]8O)[C@]7(C)CC[C@]56C)[C@@]4(C)CO)O[C@H](C(=O)O)[C@@H](O)[C@@H]3O)O[C@H](CO)[C@H](O)[C@@H]2O)[C@H](O)[C@H](O)[C@H]1O
Activity (Hepatocyte): 0%

C[C@@H]1O[C@@H](O[C@H]2[C@H](O[C@H]3[C@H](O[C@H]4CC[C@]5(C)[C@H]6CC=C7[C@@H]8CC(C)(C)CC[C@]8(C(=O)O[C@@H]8O[C@H](CO)[C@@H](O)[C@H](O)[C@H]8O)CC[C@@]7(C)[C@]6(C)CC[C@H]5C4(C)C)O[C@H](C(=O)O)[C@@H](O)[C@@H]3O)O[C@H](CO)[C@@H](O)[C@@H]2O)[C@H](O)[C@H](O)[C@H]1O
Activity (L02): 87.3%

CCOC(=O)[C@H]1O[C@@H](O[C@H]2CC[C@]3(C)[C@H]4CC=C5[C@@H]6CC(C)(C)CC[C@]6(C(=O)O[C@@H]6O[C@H](CO)[C@@H](O[C@@H]7O[C@@H](C)[C@H](O)[C@@H](O)[C@H]7O)[C@H](O)[C@H]6O)CC[C@@]5(C)[C@]4(C)CC[C@H]3C2(C)C)[C@H](O[C@@H]2O[C@H](CO)[C@@H](O)[C@H](O)[C@H]2O[C@@H]2O[C@@H](C)[C@H](O)[C@@H](O)[C@H]2O)[C@@H](O)[C@@H]1O
Activity (L02): 81.4%

CCCCOC(=O)[C@H]1O[C@@H](O[C@H]2CC[C@]3(C)[C@H]4CC=C5[C@@H]6CC(C)(C)CC[C@]6(C(=O)O[C@@H]6O[C@H](CO)[C@@H](O)[C@H](O)[C@H]6O)CC[C@@]5(C)[C@]4(C)CC[C@H]3C2(C)C)[C@H](O[C@@H]2O[C@H](CO)[C@@H](O)[C@H](O)[C@H]2O)[C@@H](O)[C@@H]1O[C@@H]1OC[C@H](O)[C@H](O)[C@H]1O
Activity (L02): 48.3%

CC1(C)CC[C@]2(C(=O)O)CC[C@]3(C)C(=CC[C@@H]4[C@@]5(C)CC[C@H](O)[C@@](C)(CO)[C@@H]5CC[C@]43C)[C@@H]2C1 [HEDERAGENIN]
Activity (L02): 62.4%
